According to patent US8603751B2, “Mycobacterial disease detection, treatment, and drug discovery” (priority 2006, dated 2013):
Entries after “also recorded” stand apart in the source; their conditions may differ.

Key:
[1] = system: Msm cells; test: Effect of screened compounds on cell viability (control plates of the M-PFC screen); details: at high concentrations
[2] = molecular target: T1, Esat6-Cfp10 (Rv3875-Rv3874) interaction (Mycobacterium tuberculosis, UniProt P9WNK5+P9WNK7); test: M-PFC counter-screen with the Esat6-Cfp10 interacting pair; type: cell-based
T1 construct: The complete open reading frames (ORF) were cloned into pUAB100 and pUAB200; Gly10 linker + mDHFR fragment F[1,2]; Gly10 linker + mDHFR fragment F[3]; expressed in transfected cells; host or cells: Mycobacterium smegmatis

[3] = molecular target: DevS(HKD)-DevR interaction (Mycobacterium tuberculosis, UniProt P9WMF9); test: M-PFC TRIM plate assay of the DevS(HKD)-DevR interaction; type: cell-based; details: 10 and 25 μg/mL, TRIM plates, FIG. 12
From the text: Additionally, whether inhibition of DevR dimerization effected upstream interactions with DevR and DevS (Rv3132c), a corresponding sensor histidine kinase involved in the Mycobacterium dormancy pathway was investigated.

[4] = system: Msm; details: on 7H11
[5] = system: Mycobacterial cells; test: Viability of Mycobacterial cells with rapamycin; details: rapamycin concentrations as high as 200 μg/mL

DevS(HKD)-DevR interaction, sequence (P9WMF9 whole entry, looked up): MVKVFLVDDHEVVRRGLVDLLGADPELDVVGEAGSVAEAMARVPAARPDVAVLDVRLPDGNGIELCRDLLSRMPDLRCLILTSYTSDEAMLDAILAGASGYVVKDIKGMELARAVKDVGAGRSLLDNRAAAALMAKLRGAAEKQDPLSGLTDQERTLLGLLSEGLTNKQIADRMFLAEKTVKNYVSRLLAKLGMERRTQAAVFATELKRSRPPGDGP
T1 sequence (P9WNK7 whole entry, the tested form may be a part): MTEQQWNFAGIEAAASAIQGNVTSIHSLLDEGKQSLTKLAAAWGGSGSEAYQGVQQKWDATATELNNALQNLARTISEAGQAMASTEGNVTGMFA
T1 sequence (P9WNK5 whole entry, the tested form may be a part): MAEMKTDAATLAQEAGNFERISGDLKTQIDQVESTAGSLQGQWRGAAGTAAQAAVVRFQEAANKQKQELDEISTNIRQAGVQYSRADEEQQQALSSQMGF

Cl.Cn1c(=N)n(CC(=O)c2cc(C(C)(C)C)c(O)c(C(C)(C)C)c2)c2ccccc21 [1-(3,5-di-tert-butyl-4-hydroxyphenyl)-2-(2-imino-3-methyl-2,3-dihydro-1H-benzimidazol-1-yl)ethanone hydrochloride]
effect on cell viability [1]: effect cell viability at high concentrations

CC(=O)NS(=O)(=O)c1ccc(NC(=O)CCc2ccccc2)cc1 [N-(4-[(acetylamino)sulfonyl]phenyl)-3-phenylpropanamide]
effect on the Esat6-Cfp10 interaction [2]: unaffected | disruption of the DevS(HKD)-DevR interaction [3]: disrupt the DevS(HKD)-DevR interaction; also recorded: capable of disrupting the DevS(HKD)-DevR interaction

COc1cc(Cc2cnc(N)nc2N)cc(OC)c1OC [TRIM, trimethoprim]
TRIM concentration to which Msm is sensitive [4]: ~40 µg/mL

CO[C@H]1C[C@@H]2CC[C@@H](C)[C@@](O)(O2)C(=O)C(=O)N2CCCC[C@H]2C(=O)O[C@H]([C@H](C)C[C@@H]2CC[C@@H](O)[C@H](OC)C2)CC(=O)[C@H](C)/C=C(\C)[C@@H](O)[C@@H](OC)C(=O)[C@H](C)C[C@H](C)/C=C/C=C/C=C/1C [rapamycin]
viability of the Mycobacterial cells [5]: not effected
